# Several values for one entry are separate records, joined by “and”; a condition that tells them apart may be missing. Identical values can stand only once.
# Assays:
# [1] = test system: db/db mice; test: Spontaneous motor activity (CLAMS, infrared beam breaks); type: in vivo; details: BBR 150mg/kg, individual mice 1-6
# Protocol: At week 5 of treatment, basal metabolic parameters of mice were measured using the Comprehensive Lab Animal Monitoring System (CLAMS, Columbus Instruments, Columbus, OH). […] The number of times the infrared beams were broken along the X- or Y-axis was used to measure the dynamic activity of mice. The respiratory exchange rate (RER) was calculated using classical Lusk theory and equations RER = VCO2/VO2.
# [2] = test system: IKKε, TBK1, p-TBK1, UCP1, p-AMPKα; test: Western blotting of eWAT; type: in vivo; details: db/db mice
# Protocol: The adipose tissue or 3T3-L1 adipocytes were homogenized by ultrasound in an ice‐cold RIPA lysis buffer containing 1% PMSF and centrifuged at 12,000 × g at 4°C for 15 min to collect the supernatant. The BCA protein assay kit (Beyotime, Shanghai, China) was used to detect the total protein concentration. Proteins (20-30 μg) of the sample were separated by 10% SDS-PAGE gel and transferred onto polyvinylidene difluoride (PVDF) membranes. Then the PVDF membranes were blocked in 5% skim milk powder in TBS containing 1% Tween-20 (TBST) for 2 h at room temperature and washed with TBST for 3 times. The membranes were incubated with the appropriate primary antibody, IKKε (1:1000 dilution), TBK1 (1:1000 dilution), p-TBK1 Ser172 (1:1000 dilution), p-AMPKα Thr172 (1:1000 dilution), UCP1 (1:1000 dilution), and GAPDH (1:1000 dilution) in the blocking buffer solution at 4 °C overnight. After washing, the membranes were incubated with horseradish peroxidase-conjugated secondary antibodies (in 5% skim milk powder) for 1 h at room temperature. Finally, the membranes were treated with enhanced chemiluminescence agents (Tanon, Shanghai, China) and the signals were monitored using the Tanon 5200 multi chemiluminescent imaging system (Tanon, Shanghai, China).
# [3] = target: T1, IKKε (Mus musculus, UniProt Q9R0T8); test: IKKε-knockdown 3T3-L1 adipocytes (siRNA; western blotting, cAMP, glycerol, ISO); type: cell-based, Murine; parameters: endogenous in cells; host or cells: differentiated 3T3-L1 adipocytes; details: for Glycerol (Figure 9l) / UCP1 (western blotting, Figure 9J) / cAMP (Figure 9k): 10μM BJ +
# T1 sequence (Q9R0T8 1-717): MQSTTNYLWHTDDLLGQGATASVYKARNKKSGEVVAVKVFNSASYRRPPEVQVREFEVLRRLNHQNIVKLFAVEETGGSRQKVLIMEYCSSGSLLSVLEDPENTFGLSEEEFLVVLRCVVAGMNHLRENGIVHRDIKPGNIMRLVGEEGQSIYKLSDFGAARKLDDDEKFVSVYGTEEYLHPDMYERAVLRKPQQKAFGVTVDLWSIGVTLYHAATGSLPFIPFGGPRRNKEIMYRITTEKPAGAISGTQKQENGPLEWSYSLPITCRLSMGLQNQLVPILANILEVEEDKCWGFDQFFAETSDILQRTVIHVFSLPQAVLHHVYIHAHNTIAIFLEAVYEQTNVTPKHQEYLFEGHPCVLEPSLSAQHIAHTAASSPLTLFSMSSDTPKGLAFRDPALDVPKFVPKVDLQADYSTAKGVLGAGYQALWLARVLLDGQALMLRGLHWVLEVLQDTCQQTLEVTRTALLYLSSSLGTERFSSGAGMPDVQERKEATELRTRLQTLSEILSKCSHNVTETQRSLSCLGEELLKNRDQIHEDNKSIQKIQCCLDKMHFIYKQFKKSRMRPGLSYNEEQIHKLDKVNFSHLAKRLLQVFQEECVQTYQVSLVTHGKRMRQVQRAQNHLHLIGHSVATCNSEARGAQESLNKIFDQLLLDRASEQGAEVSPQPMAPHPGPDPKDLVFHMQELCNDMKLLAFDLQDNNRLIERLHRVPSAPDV
# Protocol: Small interference RNA transfection (siRNA) was performed using 4 μM TBK1 siRNA (siTBK1) or 4 μM […]ε) or corresponding NC siRNA (siNC). The epididymal adipose tissue was dissected, the fresh adipose tissue was weighed and rapidly rinsed with PBS. The adipose tissue was cut and incubated with isoproterenol (10 μM) for 2 h, and homogenized in a cold cleavage buffer to prepare the adipose tissue homogenate. Then the homogenate was centrifuged at 12,000 × g at 4 °C for 15 min, and the supernatant was collected. […] Then the cells were lysed in a petri dish, scraped off, and centrifuged at 12,000 × g at 4 °C for 15 min before the supernatant was collected. […] And concentrations were further standardized according to protein concentration. The adipose tissue or 3T3-L1 adipocytes were homogenized by ultrasound in an ice-cold RIPA lysis buffer containing 1% PMSF and centrifuged at 12,000 × g at 4°C for 15 min to collect the supernatant. The BCA protein assay kit (Beyotime, Shanghai, China) was used to detect the total protein concentration. Proteins (20-30 μg) of the sample were separated by 10% SDS-PAGE gel and transferred onto polyvinylidene difluoride (PVDF) membranes. Then the PVDF membranes were blocked in 5% skim milk powder in TBS containing 1% Tween-20 (TBST) for 2 h at room temperature and washed with TBST for 3 times. […] After washing, the membranes were incubated with horseradish peroxidase-conjugated secondary antibodies (in 5% skim milk powder) for 1 h at room temperature. Finally, the membranes were treated with enhanced chemiluminescence agents (Tanon, Shanghai, China) and the signals were monitored using the Tanon 5200 multi chemiluminescent imaging system (Tanon, Shanghai, China).
smiles,measurement,setting,value
"COc1ccc2cc3[n+](cc2c1OC)CCc1cc2c(cc1-3)OCO2 [BBR, Berberine chloride dihydrate]",Spontaneous motor activity (Figure 3j),[1]; TIME 09:00:00,453.5 and 1366 and 855.5 and 150 and 210.5 and 798
same,Spontaneous motor activity (Figure 3j),[1]; TIME 10:00:00,578.5 and 328 and 167.5 and 335.5 and 115 and 382
same,Spontaneous motor activity (Figure 3j),[1]; TIME 11:00:00,144.5 and 288.5 and 281.5 and 646 and 886.5 and 449
same,Spontaneous motor activity (Figure 3j),[1]; TIME 12:00:00,559 and 373.5 and 450.5 and 378.5 and 424.5 and 29.5
same,Spontaneous motor activity (Figure 3j),[1]; TIME 13:00:00,620.5 and 553.5 and 835.5 and 411 and 498 and 330
same,Spontaneous motor activity (Figure 3j),[1]; TIME 14:00:00,823.5 and 171 and 498 and 447 and 397.5 and 455
same,Spontaneous motor activity (Figure 3j),[1]; TIME 15:00:00,870 and 677.5 and 611.5 and 326 and 849.5 and 246
same,Spontaneous motor activity (Figure 3j),[1]; TIME 16:00:00,482.5 and 647.5 and 365.5 and 416.5 and 803.5 and 105
same,Spontaneous motor activity (Figure 3j),[1]; TIME 17:00:00,814 and 1029.5 and 535.5 and 427.5 and 177.5 and 328
same,Spontaneous motor activity (Figure 3j),[1]; TIME 18:00:00,694 and 351 and 1055.5 and 323.5 and 1331.5 and 362
same,Spontaneous motor activity (Figure 3j),[1]; TIME 19:00:00,242 and 551.5 and 453.5 and 327.5 and 706.5 and 367
same,Spontaneous motor activity (Figure 3j),[1]; TIME 20:00:00,34.5 and 1152.5 and 475 and 298.5 and 432.5 and 477
same,Spontaneous motor activity (Figure 3j),[1]; TIME 21:00:00,863 and 737 and 845.5 and 99.5 and 506 and 314
same,Spontaneous motor activity (Figure 3j),[1]; TIME 22:00:00,320.5 and 467 and 701 and 142 and 156 and 371.5
same,Spontaneous motor activity (Figure 3j),[1]; TIME 23:00:00,428.5 and 928 and 390.5 and 869 and 897 and 315.5
same,Spontaneous motor activity (Figure 3j),[1]; TIME 1900-01-01 01:00:00,479.5 and 494 and 426 and 899
same,Spontaneous motor activity (Figure 3j),[1]; TIME 1900-01-01,542.5 and 374 and 305.5 and 238 and 658 and 526
"CC(C)Cc1ccc(C(C)C(=O)[O-])cc1.COc1ccc2cc3[n+](cc2c1OC)CCc1cc2c(cc1-3)OCO2.O.O.O.O [BJ, berberine-ibuprofen]",Expression of UCP1 and phosphorylation of TBK1 at Ser172 in eWAT,[2],increased
same,Protein levels of IKKε and TBK1 in eWAT,"[2]; both doses of BJ, western blotting",significantly reduced
same,AMPKα Thr172 phosphorylation (p-AMPKα) in eWAT,[2]; inhibited in db/db eWAT,restored
same,"IKKϵ (western blotting, Figure 9h)",[3]; 10μM BJ,0.1875 and 0.2278 and 0.214
same,"UCP1 (western blotting, Figure 9i)",[3]; 10μM BJ,0.3644 and 0.4778 and 0.4436
same,Expression of UCP1,[3]; 3T3-L1 adipocytes treated with BJ alone,significantly increased
same,UCP1 expression,"[3]; IKKε-knockdown 3T3-L1 adipocytes treated with BJ, vs IKKε-knockdown",not significantly altered
same,"cAMP accumulation, glycerol release, and UCP1 expression","[3]; IKKε-knockdown 3T3-L1 adipocytes, ISO stimulation, BJ vs IKKε-knockdown",did not significantly increase the above changes
same,"cAMP accumulation, glycerol release, and UCP1 expression","[3]; ISO-stimulated 3T3-L1 adipocytes, BJ treatment alone","significantly increased cAMP accumulation, glycerol release, and UCP1 expression"
same,Glycerol (Figure 9l),"[3]; siIKKϵ +, ISO +",176.805 µmol/L and 182.076 µmol/L and 176.254 µmol/L
same,"UCP1 (western blotting, Figure 9J)","[3]; siIKKϵ +, ISO +",0.785 and 0.7814 and 0.8472
same,cAMP (Figure 9k),"[3]; siIKKϵ +, ISO +",0.4194 pmol/mg protein and 0.4185 pmol/mg protein and 0.3432 pmol/mg protein and 0.371 pmol/mg protein and 0.3866 pmol/mg protein and 0.405 pmol/mg protein
same,Glycerol (Figure 9l),"[3]; siIKKϵ +, ISO -",89.0822 µmol/L and 96.3611 µmol/L and 91.9299 µmol/L
same,"UCP1 (western blotting, Figure 9J)","[3]; siIKKϵ +, ISO -",0.6376 and 0.6905 and 0.6507
same,cAMP (Figure 9k),"[3]; siIKKϵ +, ISO -",0.2155 pmol/mg protein and 0.2223 pmol/mg protein and 0.1908 pmol/mg protein and 0.2097 pmol/mg protein and 0.2158 pmol/mg protein and 0.2252 pmol/mg protein
same,Glycerol (Figure 9l),"[3]; siIKKϵ -, ISO +",156.977 µmol/L and 167.166 µmol/L and 170.891 µmol/L
same,"UCP1 (western blotting, Figure 9J)","[3]; siIKKϵ -, ISO +",0.6574 and 0.7704 and 0.6754
same,cAMP (Figure 9k),"[3]; siIKKϵ -, ISO +",0.362 pmol/mg protein and 0.3606 pmol/mg protein and 0.3205 pmol/mg protein and 0.3322 pmol/mg protein and 0.3416 pmol/mg protein and 0.3545 pmol/mg protein
same,Glycerol (Figure 9l),"[3]; siIKKϵ -, ISO -",81.5401 µmol/L and 78.1125 µmol/L and 83.122 µmol/L
same,"UCP1 (western blotting, Figure 9J)","[3]; siIKKϵ -, ISO -",0.5736 and 0.639 and 0.5661
same,cAMP (Figure 9k),"[3]; siIKKϵ -, ISO -",0.1756 pmol/mg protein and 0.1959 pmol/mg protein and 0.2053 pmol/mg protein and 0.1755 pmol/mg protein and 0.1805 pmol/mg protein and 0.1893 pmol/mg protein
same,"IKKϵ (western blotting, Figure 9h)",[3]; siIKKϵ+10μM BJ,0.09311 and 0.1256 and 0.1406
same,"UCP1 (western blotting, Figure 9i)",[3]; siIKKϵ+10μM BJ,0.4915 and 0.4988 and 0.5593

# — publication PMC9374667 (Communications Biology, 2022)
